# Where two headings read alike, the source gives them in different places. Non-standard residues stand in square brackets, D forms with d. Residues, ends and D or L forms follow the SMILES beside them. No end group written: not given here.
# Legend:
# [1] = system: Pseudomonas aeruginosa ATCC 9027; experiment: Antimicrobial assay I, MIC by OD measurement; type: cell-based; conditions: 37° C. for 24 hours, absorbance 620 nm
# [2] = system: Staphylococcus aureus ATCC 6538; experiment: Antimicrobial assay I, MIC by OD measurement; type: cell-based; conditions: 37° C. for 24 hours, absorbance 620 nm
# [3] = system: yeast (Saccharomyces cerevisiae); experiment: Antimicrobial assay I, yeast assay in RPMI 1640; type: cell-based; conditions: RPMI 1640 media
# [4] = system: S. aureus (MRSA); type: cell-based, Staphylococcus aureus; conditions: mean of three; 16 to 20 hours at 35° C.
# [5] = system: S. epidermidis C621; type: cell-based, Staphylococcus epidermidis; conditions: mean of three; 16 to 20 hours at 35° C.
# [6] = system: S. pyogenes M76; experiment: Antimicrobial assays II, NCCLS broth microdilution MIC; type: cell-based, Streptococcus pyogenes; conditions: mean of three; 16 to 20 hours at 35° C.
# [7] = system: S. pyogenes ATCC19615; experiment: as above; type: cell-based, Streptococcus pyogenes; conditions: mean of three, in µg/mL
# [8] = system: S. pneumoniae C718; experiment: as above; type: cell-based, Streptococcus pneumoniae; conditions: mean of three
# [9] = system: S. pneumoniae C719; experiment: as above; type: cell-based, Streptococcus pneumoniae; conditions: mean of three, in µg/mL
# [10] = system: P. acne ATCC 6919; experiment: as above; type: cell-based, Propionibacterium acnes; conditions: mean of three, in µg/mL
# [11] = system: BMKC; experiment: Anti-cancer assay, MTT, LD50; type: cell-based; conditions: BMKC cloned melanoma line, 24 hours with peptide
# Text: (§1) Numbers are LD50 values (μg/mL).
# [12] = system: H1299; experiment: Anti-cancer assay, MTT, LD50; type: cell-based; conditions: 24 hours with peptide, lung large cell carcinoma
# Text: as §1
# [13] = system: MCF7; experiment: Anti-cancer assay, MTT, LD50; type: cell-based; conditions: MCF7 breast adenocarcinoma line, MTT, 24 hours with peptide
# Text: as §1
# [14] = system: PC3; experiment: Anti-cancer assay, MTT, LD50; type: cell-based; conditions: 24 hours with peptide, prostate adenocarcinoma
# Text: as §1
# [15] = system: SW480; experiment: Anti-cancer assay, MTT, LD50; type: cell-based; conditions: SW480 colon adenocarcinoma line, 24 hours with peptide
# Text: as §1
# [16] = in vitro; type: cell-based, human; conditions: human, human red blood cells, pH 7, hemolytic assay, concentration at 50% hemolysis, 1 hour at 37° C.; read-out: LD50
# [17] = system: P. aeruginosa H374; type: cell-based, Pseudomonas aeruginosa; parameters: key to FIC Index: FIC = 0.25 + MIC antibiotic in combination / MIC alone; ≤0.5 = synergy; conditions: for MIC Cm-comb.: MIC of chloramphenicol with peptide at ¼ MIC; for MIC Nal-comb.: MIC of nalidixic acid with peptide at ¼ MIC; for FIC Index: 0.5 or less = synergy
# Summary of the method: (§2)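 Synergy against efflux-mutant strains: two-fold dilutions of nalidixic acid or chloramphenicol tested with peptide held at ¼ of its MIC.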
# [18] = system: P. aeruginosa H774; type: cell-based, Pseudomonas aeruginosa; parameters: key to FIC Index: FIC = 0.25 + MIC antibiotic in combination / MIC alone; ≤0.5 = synergy; conditions: P. aeruginosa H744; nalidixic acid + peptide at ¼ MIC; 0.5 or less = synergy
# Summary of the method: as §2
# [19] = system: P. aeruginosa; type: cell-based, Pseudomonas aeruginosa; parameters: key to FIC Index: FIC = 0.25 + MIC antibiotic in combination / MIC alone; ≤0.5 = synergy; conditions: P. aeruginosa H744; MIC of nalidixic acid with peptide at ¼ MIC
# Summary of the method: as §2
# [20] = system: WI38; conditions: MTT, 24 hours with peptide; normal fibroblast line
# [21] = in vitro; conditions: human, WI38 normal lung fibroblast cells, LD50 WI38, WI38 normal lung fibroblast line, MTT, 24 hours with peptide
# [22] = system: HeLaS3; experiment: Anti-cancer assay, MTT, LD50; type: cell-based; conditions: 24 hours with peptide, cervical carcinoma
# Text: as §1
# [23] = chloramphenicol + peptide at ¼ MIC
# [24] = nalidixic acid + peptide at ¼ MIC, FIC=0.25+MIC comb/MIC alone
Molecule,paerug9027 (MIC) [1],staph6538 (MIC) [2],yeast (MIC or MFC) [3],S. aureus (MRSA) MIC [4] [µg/mL],S. epidermidis C621 MIC [5] [µg/mL],S. pyogenes M76 MIC [6] [µg/mL],S. pyogenes MIC [7],S. pneumoniae MIC [8] [µg/mL],S. pneumoniae MIC [9],P. acne MIC [10],LD50 BMKC [11] [µg/mL],H1299 LD50 [12] [µg/mL],LD50 MCF7 [13] [µg/mL],PC3 LD50 [14] [µg/mL],MIC Cm-comb. [17] [µg/mL],MIC Nal-comb. [17] [µg/mL],"FIC Index [17, 23]","FIC Index [17, 24]",FIC Index [18],MIC Nal-comb. [19] [µg/mL],other results
FAKKLAKKLL-NH2 [P59],> (> indicates greater than 200 μg/mL),> (> indicates greater than 200 μg/mL),> (> indicates greater than 200 μg/mL),8,8,2,2,16,4,2,155,180,31,81,8,2500,0.75,0.75,1.25,624,LD50 SW480 [15]: 42 µg/mL; HC50 at 1 h [16]: 1000 µg/mL; WI38 LD50 [20]: 77 µg/mL; CC50 at 24 h [21]: 77 µg/mL
FAKALKALLKALKAL-NH2 [P64],> (> indicates greater than 200 μg/mL),5 µg/mL,200 µg/mL,8,4,4,4,8,2,2,35,30,80,46,16,5000,1.25,1.25,1.25,624,HeLaS3 LD50 [22]: 30 µg/mL
VAKKLAKLAKKLAKLAL-NH2 [P50],15 µg/mL,5 µg/mL,50 µg/mL,4,4,8,4,32,16,4,40,7,32,54,16,5000,1.25,1.25,1.25,624,HeLaS3 LD50 [22]: 33 µg/mL; LD50 SW480 [15]: 46 µg/mL
"CC(C)C[C@H](NC(=O)[C@H](C)NC(=O)[C@H](CCCCN)NC(=O)[C@H](CCCCN)NC(=O)[C@H](CC(C)C)NC(=O)[C@H](C)NC(=O)[C@H](CCCCN)NC(=O)[C@H](CCCCN)NC(=O)[C@H](CC(C)C)NC(=O)[C@@H](CCCCN)NC(=O)[C@@H](CCCCN)NC(=O)[C@H](CC(C)C)NC(=O)[C@H](C)NC(=O)[C@H](CCCCN)NC(=O)[C@H](CCCCN)NC(=O)[C@H](CC(C)C)NC(=O)[C@H](C)NC(=O)[C@H](CCCCN)NC(=O)[C@H](CC(C)C)NC(=O)[C@H](C)NC(=O)[C@H](CC(C)C)NC(=O)[C@H](C)NC(=O)[C@@H](N)Cc1ccccc1)C(=O)O [P37, FALALKALKKAL-(D)-K-(D)-KLKKALKKAL-COOH] (H-FALALKALKKAL[dK][dK]LKKALKKAL-OH; N-terminus assumed)",100 µg/mL,5 µg/mL,50 µg/mL,8,4,8,8,64,16,4,150,150,14,64,4,2500,0.5,0.75,1.25,624,LD50 SW480 [15]: 57 µg/mL; HC50 at 1 h [16]: 30 µg/mL; WI38 LD50 [20]: 80 µg/mL; CC50 at 24 h [21]: 80 µg/mL

# — patent publication US20050209157A1, “Short bioactive peptides and methods for their use” (priority 2001, published 2005)
